Measured values as given in patent US20170226483A1, “Methods and Vectors to Produce Vector Free Induced Pluripotent Stem Cells” (Lonza Walkersville, Inc., priority 2016, published 2017).

Legend:
[1] = tested on: hiPSC that do not express the respective suicide gene; assay: Cytotoxic effect of the suicide gene substrate on hPSCs that do not express the suicide gene (alkaline phosphatase staining); format: cell-based, human; conditions: 48 hours
Excerpt: Cell were fixed and stained for alkaline phosphatase activity after 48 hr. […] Additional experiments will determine the required levels of ganciclovir and 5-FC in hiPSCs that express the suicide gene, to determine the minimum concentration required.

[2] = tested on: BALB/c murine K3T3 sarcoma cell lines with herpes simplex virus thymidine kinase gene; conditions: K3T3 sarcoma cell lines carrying HSV thymidine kinase gene; cited from earlier work
K3T3 sarcoma tumors = conditions: BALB/c mice bearing K3T3 sarcoma tumors produced by the cell lines; cited from earlier work

SMILES | cytotoxic effect on hiPSCs ([1]; 5-FC 1, 10 and 100 μM) | cytotoxic effect on hiPSCs ([1]; ganciclovir 0.2, 2 or 20 μM) | effect on tumor cells in vitro [2] | effect on tumors in vivo (K3T3 sarcoma tumors)
Nc1nc(=O)[nH]cc1F [Vector 5-FC, 5-Flurocytosine] | no cytotoxic effect |  |  | 
Nc1nc(O)c2ncn(COC(CO)CO)c2n1 [ganciclovir, Ganciclovir] |  | no cytotoxic effect | destruction of the tumor cells | destruction of the tumors
